Measured values taken from PubChem BioAssay (NCI).
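Exposure lasted 48 hours, with cells grown in 96-well plates and compounds tested at five concentrations. Here, GI50 denotes the concentration required for 50% inhibition of growth. TGI: concentration producing complete growth inhibition.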

How the values were obtained:
Experiment in all cases: inhibition of tumour cell growth, NCI panel, 48 h
786-0 renal = test system: 786-0 renal
A549 NSCLC = test system: A549 NSCLC
CAKI-1 renal = test system: CAKI-1 renal
COLO 205 colon = test system: COLO 205 colon
HCC-2998 colon = test system: HCC-2998 colon
HCT-116 colon = test system: HCT-116 colon
HOP-62 NSCLC = test system: HOP-62 NSCLC
HT29 colon = test system: HT29 colon
MALME-3M melanoma = test system: MALME-3M melanoma
MCF7 breast = test system: MCF7 breast
MDA-MB-231 breast = test system: MDA-MB-231 breast
NCI-H460 lung = test system: NCI-H460 lung
NCI-H522 lung = test system: NCI-H522 lung
RXF 393 renal = test system: RXF 393 renal
SF-539 CNS = test system: SF-539 CNS
SNB-19 CNS = test system: SNB-19 CNS
T-47D breast = test system: T-47D breast
U251 CNS = test system: U251 CNS
UO-31 renal = test system: UO-31 renal

| Compound | TGI (786-0 renal) [µM] | TGI (A549 NSCLC) [µM] | TGI (CAKI-1 renal) [µM] | TGI (COLO 205 colon) [µM] | TGI (HCC-2998 colon) [µM] | TGI (HCT-116 colon) [µM] | TGI (HOP-62 NSCLC) [µM] | TGI (HT29 colon) [µM] | TGI (MALME-3M melanoma) [µM] | TGI (MCF7 breast) [µM] | TGI (MDA-MB-231 breast) [µM] | TGI (NCI-H460 lung) [µM] | TGI (NCI-H522 lung) [µM] | TGI (RXF 393 renal) [µM] | TGI (SF-539 CNS) [µM] | TGI (SNB-19 CNS) [µM] | TGI (T-47D breast) [µM] | TGI (U251 CNS) [µM] | TGI (UO-31 renal) [µM] | GI50 (CAKI-1 renal) [µM] |
| --- | --- | --- | --- | --- | --- | --- | --- | --- | --- | --- | --- | --- | --- | --- | --- | --- | --- | --- | --- | --- |
| O=C1C2CC=CCC2C(=O)N1n1c(-c2ccccc2)n[nH]c1=O (stereo unspecified) | > 100 | > 100 | > 100 | > 100 | > 100 | > 100 | > 100 | > 100 | > 100 | > 100 | > 100 | > 100 | > 100 | > 100 | > 100 | > 100 | > 100 | > 100 | > 100 |  |
| COc1nc(N)c(NC2OC(CO)C(O)C2O)c(=O)[nH]1 (stereo unspecified) | > 100 | > 100 | > 100 | > 100 | > 100 | > 100 | > 100 | > 100 | > 100 | > 100 | > 100 | > 100 | > 100 | > 100 | > 100 | > 100 | > 100 | > 100 | > 100 |  |
| COc1cc(OC)c(OC)cc1/C=N/N=C(\N)NO | > 100 | > 100 | > 100 | > 100 | > 100 | > 100 | > 100 | > 100 | > 100 | > 100 | > 100 | > 100 | > 100 | > 100 | > 100 | > 100 | > 100 | > 100 | > 100 |  |
| CN(/N=C(\C(=O)O)c1ccccc1)C1=NCCCN1 | > 100 | > 100 | > 100 | > 100 | > 100 | > 100 | > 100 | > 100 | > 100 | > 100 | > 100 | > 100 | > 100 | > 100 | > 100 |  | > 100 | > 100 | > 100 |  |
| CC(=O)Nc1ccccc1SCCSSCCSc1ccccc1NC(C)=O | 64.3 | 69.8 | 83.4 | 40.5 | 50.8 | > 100 | > 100 | 76.8 | > 100 | > 100 | 91.4 | 68.6 | 34.3 | > 100 | 52.1 | 36.7 | 92.9 | 70.2 | 35.8 |  |
| COC(=O)[C@@H]1CN(C(=O)CCc2ccccc2)C(=O)N1C(=O)OCc1ccccc1 | > 100 | > 100 | > 100 | > 100 | > 100 | > 100 | > 100 | > 100 | > 100 | > 100 | > 100 | > 100 | > 100 | > 100 | > 100 | > 100 | > 100 | > 100 | > 100 |  |
| O=c1oc2ccccc2c(Nc2ccc3c(c2)S(=O)(=O)c2ccccc2O3)c1[N+](=O)[O-] | 58.4 | > 100 | 51.3 | 47.6 | 52.6 | 65 | > 100 | > 100 | 64.6 | 56.6 | 67.9 | 91.7 | 42.9 | 51.2 | 65.2 | > 100 | 62.3 | 42.1 | 99.4 |  |
| COC(=O)c1ccc2c(O)c(O)ccc2c1 | 29.3 | 42 | 47.3 | 26.7 | 29.6 | 32 | 32.9 | 33.7 | 24.2 | 36.6 | 15.4 | 39.3 | 29.1 | 31.4 | 34.2 | 27.5 | 42.6 | 27.5 | 36.4 |  |
| COc1ccc(NC(=O)CC(=O)N2N=C(C)C(N=Nc3ccc(S(=O)(=O)c4ccc(N=NC5C(=O)N(C(=O)CC(=O)Nc6ccc(OC)cc6)N=C5C)cc4)cc3)C2=O)cc1 (stereo unspecified) | > 100 | > 100 | > 100 | > 100 | > 100 | > 100 | > 100 | > 100 | > 100 | > 100 | > 100 | > 100 | > 100 | > 100 | > 100 | > 100 | > 100 | > 100 | > 100 |  |
| C=Cc1c(C)c(OC)cc2c1Oc1ccc(OC)c(C)c1CC2 | > 100 | > 100 | > 100 | > 100 | > 100 | > 100 | > 100 | > 100 | > 100 | > 100 | > 100 | > 100 | > 100 | > 100 | > 100 | > 100 | > 100 | > 100 | > 100 |  |
| CCC1C(c2cc(OC)c(OC)c(OC)c2)c2cc3c(cc2OC1N1CCCC1)OCO3 (stereo unspecified) | 22.2 | 20.2 | 9.8 | 12.1 | 8.16 | 11.5 | 15.9 | 10.9 | 40.3 | 13.7 | 20.5 | 12.4 | 10.1 | 9.31 | 5.53 | 24 | 41.9 | 11.7 | 23.1 |  |
| O=C(NCc1cccnc1)NCc1cccnc1 | > 100 | > 100 | > 100 | > 100 | > 100 | > 100 | > 100 | > 100 | > 100 | > 100 | > 100 | > 100 | > 100 | > 100 | > 100 | > 100 | > 100 | > 100 | > 100 |  |
| Cc1ccc(-c2nc3ccc(Cl)cc3[nH]2)cc1 | > 100 | > 100 | > 100 | > 100 | > 100 | > 100 | > 100 | > 100 | > 100 | > 100 | > 100 | > 100 | > 100 | > 100 | > 100 | > 100 | > 100 | > 100 | > 100 |  |
| Fc1ccc2nc3n(c2c1)C(c1c(F)cccc1F)SC3 (stereo unspecified) | > 100 | > 100 | > 100 | > 100 | > 100 | > 100 | > 100 | > 100 | > 100 | > 100 | > 100 | > 100 | > 100 | > 100 | > 100 | > 100 | > 100 | > 100 | > 100 |  |
| CCC(NC(C)c1ccccc1)C(O)c1ccc(OCc2ccccc2)c(OCc2ccccc2)c1 (stereo unspecified) | 27.1 | 29.8 | 24.4 | 3.88 | 6.49 | 27.7 | 32.2 | 13 | 28.9 | 31.1 | 21.2 | 32.1 | 35.1 | 23 | 32.8 | 28.6 | 40.1 | 27.7 | 23.7 |  |
| CC(=O)OC1C(O)COC(O[C@H]2CC[C@]34C[C@]35CC[C@]3(C)C([C@@]6(C)CC[C@@H](C(C)(C)O)O6)[C@@H](O)C[C@@]3(C)C5C[C@H](OC3OCC(O)C(O)C3O)[C@H]4C2(C)C)C1OC1OCC(O)C(O)C1O (stereo partly specified) | > 100 | > 100 | > 100 | > 100 | > 100 | > 100 | > 100 | > 100 | > 100 | > 100 | > 100 | > 100 | > 100 | > 100 | > 100 | > 100 | > 100 | > 100 | > 100 |  |
| COc1ccc(NC2Oc3cc4c(cc3C(c3cccc(OC)c3OC)C2C)OCO4)cc1 (stereo unspecified) | > 100 | > 100 | > 100 | 19.2 | > 100 | 16.3 | > 100 | > 100 | 82.3 | > 100 | > 100 | > 100 | > 100 | 50.2 | > 100 | > 100 | > 100 | > 100 | > 100 |  |
| COc1nc2c(c(=O)n1C)N(C(C)=O)C1C(N2)OCC(OC(C)=O)C1OC(C)=O (stereo unspecified) | > 10 | > 10 | > 10 | > 10 | > 10 | > 10 | > 10 | > 10 | > 10 | > 10 | > 10 | > 10 | > 10 | > 10 | > 10 | > 10 | > 10 | > 10 | > 10 |  |
| C#CCOCC12C=CC(O1)C1C(=O)N(C)C(=O)C12 (stereo unspecified) | > 100 | > 100 | > 100 | > 100 | > 100 | > 100 | > 100 | > 100 | > 100 | > 100 | > 100 | > 100 | > 100 | > 100 | > 100 | > 100 | > 100 | > 100 | > 100 | > 100 |
| COC(=O)c1c2n(c3ccccc13)C[C@H]1OC(C)(C)O[C@@H]21 | > 100 | > 100 | > 100 | > 100 | > 100 | > 100 | > 100 | > 100 | > 87.6 | > 100 | > 100 | > 100 | > 100 | > 100 | > 100 | > 100 | > 100 | > 100 | > 100 |  |
| O=C(N=S(NC(=O)c1ccccc1)C(Cl)(Cl)Cl)c1ccccc1 (stereo unspecified) | 54.9 | > 100 | 54.9 | 29.4 | > 57.3 | 28.8 | > 31.6 | 36.3 | 37.9 | 76.5 | > 100 | > 70.9 | 51.1 | 18 | 48.1 | > 100 | 67.5 | > 90.7 | 29.9 |  |
| C=CCOC(=O)/C(=C\c1ccc(OC)c(OC)c1)c1ccc(OC)c(OC)c1 | > 100 | > 100 | > 100 | > 100 | > 100 | > 100 | > 100 | > 100 | > 100 | > 100 | > 100 | > 100 | > 100 | 99.5 | > 100 | > 100 | 98.4 | > 100 | 80 |  |
| CC1C(c2ccccc2)OP(=O)(OC(C#N)c2ccccc2)N1C (stereo unspecified) | > 100 | > 100 | > 100 | > 100 | > 100 | > 100 | > 100 | > 100 | > 100 | > 100 | > 100 | > 100 | > 100 | > 100 | > 100 | > 100 | > 100 | > 100 | > 100 |  |
| CCOC(=O)c1sc2c(c1OC(=O)c1cccs1)c(=O)n(-c1ccccc1)c(=S)n2-c1ccccc1 | 24.4 | 38.8 | 75.8 | 35.6 | 36.5 | 22 | 50.3 | 17.2 | 31.5 | 69.1 | 41.8 | 12.4 | 27.1 | 89.8 | 36 | 88.5 | > 100 | 31.4 | 0.925 |  |
